The target of this assay is CDK2/Cyclin E1 (Homo sapiens, UniProt P24941). The assay can be described thus: CDK2/Cyclin E1 Caliper LabChip EZ Reader mobility shift assay. Type of assay: biochemical. More on the design: purchased Eurofins 14-475. As to conditions: read-out: Caliper Assay (CDK2/CCNE1): IC50. The essentials:
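Mobility-shift kinase assay: compound titrations preincubated 30 min with enzyme and ATP, reaction started with 5-FAM-QSPKKG-CONH2 peptide. Final 2.5 nM CDK2/Cyclin E1, 100 μM ATP, 1.5 μM peptide, HEPES pH 7.5; stopped with EDTA after 100 min. IC50 from four-parameter fit of normalized conversion ratio.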

In the case of `CNC(=O)[C@@H](NC(=O)[C@@H]1CN(C(=O)c2cnn(Cc3ccccc3)c2)CC12CN(C(=O)[C@H]1CC1(C)C)C2)[C@@H](C)NCC1CCCCC1` [I-269, (S)-6-(1-benzyl-1H-pyrazole-4-carbonyl)-N-((2S,3R)-3-((cyclohexylmethyl)amino)-1-(methylamino)-1-oxobutan-2-yl)-2-((S)-2,2-dimethylcyclopropane-1-carbonyl)-2,6-diazaspiro[3.4]octane-8-carboxamide], the IC50 lay in the range of 100 to 1000 nM.

For `C[C@@H](OCC1CCCCC1)[C@H](NC(=O)[C@@H]1CN(C(=O)c2cnn(Cc3ccccc3)c2)CC12CN(C(=O)[C@H]1CC1(C)C)C2)C(=O)N1CC[C@@H]1CN` [I-270], the IC50 is 10 to 100 nM.

For the molecule `C[C@@H](OCC1CCCCC1)[C@@H](COC1CCC(F)(F)CC1)NC(=O)[C@@H]1CN(C(=O)c2cnn(Cc3ccccc3)c2)CC12CN(C(=O)[C@H]1CC1(C)C)C2` [I-271], the IC50 was at most 10 nM.

For the molecule `CNC(=O)[C@@H](NC(=O)[C@@H]1CN(C(=O)c2cnn(Cc3ccccc3)c2)CC12CN(C(=O)[C@H]1CC1(C)C)C2)[C@@H](C)N(CC1CCCCC1)C(C)=O` [I-273, (S)-6-(1-benzyl-1H-pyrazole-4-carbonyl)-N-((2S,3R)-3-(N-(cyclohexylmethyl)acetamido)-1-(methylamino)-1-oxobutan-2-yl)-2-((S)-2,2-dimethylcyclopropane-1-carbonyl)-2,6-diazaspiro[3.4]octane-8-carboxamide], the IC50 is above 10000 nM.

`CNC(=O)[C@@H](NC(=O)[C@@H]1CN(C(=O)c2cnn(Cc3ccccc3)c2)CC12CN(C(=O)N(C)C(C)C)C2)[C@@H](C)OCC1CCCCC1` [I-274, (S)-6-(1-benzyl-1H-pyrazole-4-carbonyl)-N8-((2S,3R)-3-(cyclohexylmethoxy)-1-(methylamino)-1-oxobutan-2-yl)-N2-isopropyl-N2-methyl-2,6-diazaspiro[3.4]octane-2,8-dicarboxamide]: the IC50 was in the range of 100 to 1000 nM.

For the molecule `C[C@H](OC1CCN(C(=O)[C@@H]2CN(C(=O)c3cnn(Cc4ccccc4)c3)CC23CN(C(=O)[C@H]2CC2(C)C)C3)CC1)c1ccccc1` [I-275], the IC50 fell in the range of 100 to 1000 nM.

As for `CNC(=O)[C@@H](NC(=O)[C@@H]1CN(C(=O)c2cnn(Cc3ccccc3)c2)CC12CN(C(=O)C(C)(C)C1CC1)C2)[C@@H](C)OCc1ccccc1` [I-276], the IC50 fell in the range of 1000 to 10000 nM.

As to `CNC(=O)[C@@H](NC(=O)[C@@H]1CN(C(=O)c2cnn(Cc3ccccc3)c2)CC12CN(C(=O)C(C)C1CC1)C2)[C@@H](C)OCc1ccccc1` (stereo partly drawn) [I-277], the IC50 was in the range of 1000 to 10000 nM.

On to `Cc1ccc2[nH]c(CNC(=O)C3CN(C(=O)c4cnn(Cc5ccccc5)c4)CC34CN(C(=O)[C@H]3CC3(C)C)C4)nc2c1` (stereo partly drawn) [I-278], for which the IC50 was 1000 to 10000 nM.

Consider `CNC(=O)[C@@H](NC(=O)[C@@H]1CN(C(=O)c2cncs2)CC12CN(C(=O)[C@H]1CC1(C)C)C2)[C@@H](C)OC(C)C1CCCCC1` (stereo partly drawn) [I-279], for which the IC50 was in the range of 10 to 100 nM.

With `C[C@@H](OCc1ccccc1)[C@H](NC(=O)[C@@H]1CN(C(=O)c2cnn(Cc3ccccc3)c2)CC12CN(C(=O)[C@H]1CC1(C)C)C2)C(=O)N1CCC(F)(F)CC1` [I-280], the IC50 was at most 10 nM.

In the case of `C[C@@H](OCC1CCCCC1)[C@@H](COCC1CCCCC1)NC(=O)[C@@H]1CN(C(=O)c2cncs2)CC12CN(C(=O)[C@H]1CC1(C)C)C2` [I-282], the IC50 was at most 10 nM.

As for `COC[C@H]1CCCN(C(=O)[C@@H](NC(=O)[C@@H]2CN(C(=O)c3cnn(Cc4ccccc4)c3)CC23CN(C(=O)[C@H]2CC2(C)C)C3)[C@@H](C)OC)C1` [I-283], the IC50 fell in the range of 1000 to 10000 nM.

Regarding `CC(O[C@H](C)[C@H](NC(=O)[C@@H]1CN(C(=O)c2cncs2)CC12CN(C(=O)[C@H]1CC1(C)C)C2)C(=O)N1CCCCC1)C1CCCCC1` (stereo partly drawn) [I-284, (8S)—N-((2S,3R)-3-(1-cyclohexylethoxy)-1-oxo-1-(piperidin-1-yl)butan-2-yl)-2-((S)-2,2-dimethylcyclopropane-1-carbonyl)-6-(thiazole-5-carbonyl)-2,6-diazaspiro[3.4]octane-8-carboxamide], the IC50 is 10 to 100 nM.

In the case of `C[C@@H](OCC1(C(F)(F)F)CC1)[C@H](NC(=O)[C@@H]1CN(C(=O)c2cncs2)CC12CN(C(=O)[C@H]1CC1(C)C)C2)C(=O)N1CCCCC1` [I-285], the IC50 is 100 to 1000 nM.

For `CC1(C)C[C@@H]1C(=O)N1CC2(CN(C(=O)c3cncs3)C[C@H]2C(=O)N[C@@H](COCC2CCCCC2)C(=O)N2CCCCC2)C1` [I-286], the IC50 was 10 to 100 nM.

As for `C[C@@H](OCC1(C(F)(F)F)CC1)[C@H](NC(=O)[C@@H]1CN(C(=O)c2cncs2)CC12CN(C(=O)[C@H]1CC1(C)C)C2)C(=O)N1CCC(F)(F)CC1` [I-287], the IC50 lay in the range of 100 to 1000 nM.

Regarding `C[C@@H](OCC1CCOCC1)[C@H](NC(=O)[C@@H]1CN(C(=O)c2cncs2)CC12CN(C(=O)[C@H]1CC1(C)C)C2)C(=O)N1CCC(F)(F)CC1` [I-288], the IC50 was 10 to 100 nM.

Turning to `CNC(=O)[C@@H](NC(=O)[C@@H]1CN(C(=O)c2cncs2)CC12CN(C(=O)[C@H]1CC1(C)C)C2)[C@@H](C)OCC12CCC(CC1)CC2` [I-289], the IC50 was at most 10 nM.

On to `CNC(=O)[C@@H](NC(=O)[C@@H]1CN(C(=O)c2cncs2)CC12CN(C(=O)[C@H]1CC1(C)C)C2)[C@@H](C)OC1CCCCC1` [I-290], for which the IC50 was in the range of 100 to 1000 nM.

Turning to `C[C@@H](OCC1(C(F)(F)F)CC1)[C@H](NC(=O)[C@H]1CN(C(=O)c2cncs2)CC12CN(C(=O)[C@H]1CC1(C)C)C2)C(=O)N1CCC(F)(F)CC1` [I-291], the IC50 lay within 100 to 1000 nM.

On to `C[C@@H](OCC1(C(F)(F)F)CC1)[C@H](NC(=O)[C@H]1CN(C(=O)c2cncs2)CC12CN(C(=O)[C@H]1CC1(C)C)C2)C(=O)N1CCCCC1` [I-292], for which the IC50 fell in the range of 10 to 100 nM.

For `CC1(C)C[C@@H]1C(=O)N1CC2(CN(C(=O)c3cncs3)C[C@@H]2C(=O)N[C@@H](COCC2CCCCC2)C(=O)N2CCCCC2)C1` [I-293], the IC50 was in the range of 1000 to 10000 nM.

On to `CNC(=O)[C@@H](NC(=O)[C@@H]1CN(C(=O)c2cnn(Cc3ccccc3)c2)CC12CN(CC(=O)O)C2)[C@@H](C)OCC1CCCCC1` [I-294, 2-((S)-6-(1-benzyl-1H-pyrazole-4-carbonyl)-8-(((2S,3R)-3-(cyclohexylmethoxy)-1-(methylamino)-1-oxobutan-2-yl)carbamoyl)-2,6-diazaspiro[3.4]octan-2-yl)acetic acid], for which the IC50 was above 10000 nM.

Regarding `CNC(=O)[C@@H](NC(=O)[C@@H]1CN(C(=O)c2cnn(Cc3ccccc3)c2)CC12CN(C(=O)N(C)C1CC1)C2)[C@@H](C)OCC1CCCCC1` [I-295], the IC50 was 100 to 1000 nM.

In the case of `C[C@@H](OCC1CCCCC1)[C@H](NC(=O)[C@@H]1CN(C(=O)c2cncs2)CC12CN(C(=O)[C@H]1CC1(F)F)C2)C(=O)N1CCCCC1` [I-296], the IC50 is 10 to 100 nM.

For `C[C@@H](OCC1CCOCC1)[C@H](NC(=O)[C@@H]1CN(C(=O)c2cn[nH]c2)CC12CN(C(=O)[C@H]1CC1(C)C)C2)C(=O)N1CCC(F)(F)CC1` [I-297], the IC50 lay within 10 to 100 nM.

`CNC(=O)C(NC(=O)[C@@H]1CN(C(=O)c2cn[nH]c2)CC12CN(C(=O)[C@H]1CC1(C)C)C2)C(O)Cc1ccccc1` (stereo partly drawn) [I-298]: the IC50 was above 10000 nM.

As to `CNC(=O)[C@@H](NC(=O)[C@@H]1CN(C(=O)c2cnn(Cc3ccccc3)c2)CC12CN(C(=O)[C@H]1CC1(C)C)C2)[C@@H](C)OCC12CC(C(=O)OC)(C1)C2` [I-299], the IC50 lay in the range of 10 to 100 nM.

In the case of `C[C@@H](OCC1CCCCC1)[C@H](NC(=O)[C@@H]1CN(C(=O)c2cnn(Cc3ccccc3)c2)CC12CN(C(=O)[C@H]1CC1(C)C)C2)C(=O)N1CCC(c2ccncc2)CC1` [I-300], the IC50 was at most 10 nM.

The values are drawn from patent US20240174680A1, “CDK2 INHIBITORS AND METHODS OF USING THE SAME” (Cedilla Therapeutics, Inc., priority 2021, published 2024).
